Test results: patent US6284910A, “Farnesyl pyrophosphate analogs” (University of Kentucky Research Foundation, priority 1999, dated 2001)
Entries after “also recorded” stand apart in the source; their conditions may differ.

Experiments:
FTase = FTase (Rattus norvegicus, UniProt Q02293+Q04631); experiment: Inhibition of FTase-catalyzed transfer of [^3 H]AGPP to p21^H-ras; type: biochemical; parameters: H-Ras is only the protein substrate; settings: non-radiolabeled compound, time and concentration dependent transfer
Experimental: Assay for Farnesyltransferase Activity--Farnesyltransferase activity was assayed by measuring the amount of [^3 H]farnesyl or [^3 H]anilinogeranyl transferred from [^3 H]FPP or [^3 H]AGPP to recombinant p21^H-ras, as described previously (31). Unless otherwise stated, each reaction mixture contained the following components in a final volume of 25 μl: 50 mM Tris (pH 7.4), 20 mM KCl, 0.2% octyl β-glucopyranoside, 1 mM dithiothreitol, 10-20 ng recombinant FTase, 5 μM p21^Ha-ras, 3 mM MgCl2, 50 μM ZnCl2, and 0.6 μM [^3 H]FPP (33,000 dpm/pmol; American Radiochemical Co.) or 0.1-5 μM [^3 H]AGPP (37,400 dpm/pmol). Following incubation for the indicated times at 37° C., the amount of [^3 H]prenyl transferred was measured by ethanol-HCl precipitation and filtration on glass fiber filters with modification as previously described (19). A blank value was determined in parallel incubation mixtures containing no enzyme. This blank value was subtracted from each reaction before calculating pmol [^3 H]prenyl transferred.
The observed inhibition kinetics could be a manifestation of the ability of AGPP to act as an alternative substrate for FTase. To evaluate the potential of AGPP to serve as a substrate of FTase, [^3 H]-AGPP was prepared by a similar route as described above, incorporating tritium with a specific activity of 17 Ci/mmol (synthesis to be reported elsewhere). […] The incorporated radioactivity was detected as a band of the expected molecular weight of farnesylated p21^H-ras on SDS-polyacrylamide gels (FIG. 4A, inset). […] The concentration of [^3 H]AGPP that gave half-maximal reaction velocity was approximately 0.5 μM (FIG. 4B).

squalene synthase = target: T1, squalene synthase (Bos taurus, UniProt Q32KR6); experiment: Conversion of [^3 H]AGPP to organic soluble products by squalene synthase; type: biochemical, bovine; settings: in vitro; listed as [^3 H]AGPP
T1 construct: squalene synthase activity present in bovine brain microsome fractions; from tissue; host or cells: bovine brain microsomes (crude)
T1 sequence (Q32KR6 1-417): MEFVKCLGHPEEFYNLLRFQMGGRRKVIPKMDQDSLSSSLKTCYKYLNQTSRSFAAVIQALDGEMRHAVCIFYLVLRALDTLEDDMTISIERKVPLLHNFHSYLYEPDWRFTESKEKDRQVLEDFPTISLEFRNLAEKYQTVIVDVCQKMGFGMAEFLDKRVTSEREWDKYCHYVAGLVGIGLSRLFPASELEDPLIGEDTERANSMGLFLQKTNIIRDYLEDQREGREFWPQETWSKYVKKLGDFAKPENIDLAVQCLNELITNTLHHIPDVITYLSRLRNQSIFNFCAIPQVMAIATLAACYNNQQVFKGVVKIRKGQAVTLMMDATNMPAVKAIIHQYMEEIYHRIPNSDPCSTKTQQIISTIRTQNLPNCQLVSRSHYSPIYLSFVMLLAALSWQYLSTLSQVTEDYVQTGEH
Experimental: Assay for Squalene Synthase Activity--Initial rates of squalene synthase activity present in bovine brain microsome fractions were assayed as previously described (19) with minor modifications. […] […] Assay mixtures were incubated for 30 min at 37° C., and the reactions terminated by the addition of 50 μl of 40% (wt/vol) KOH and then 100 μl of 95% ethanol. The resulting mixtures were incubated at 60° C. for 2 h and then cooled to room temperature. Authentic carrier squalene (20 μg) was added to each reaction tube, which were then extracted three times with petroleum ether. The lipid extracts were pooled, washed with water three times, and evaporated under a stream of N2. The lipid residue was redissolved in 100 μl CHCl3 /CH3 OH (2:1 vol/vol) and an aliquot (30 μl) was taken to determine the amount of labeled lipid formed by scintillation spectrometry. The remaining sample was analyzed on Silica gel G 60 TLC plates by developing with hexane (33). In all analyses the squalene standard was located by anisaldehyde spray reagent (34), and radioactive zones were located with a Bioscan Imaging System 200-IBM.
Some of the previously characterized FTase inhibitors, particularly those competitive for FPP binding, have been described as inhibitors of squalene synthase, an enzyme that utilizes FPP and is an important secondary regulatory protein in the cholesterol biosynthetic pathway (38).

C/C(=C\COP(=O)(O)OP(=O)(O)O)CC/C=C(\C)CNc1ccccc1 [AGPP, (E,E)-8-Aniline-3,7-dimethyl-2,6-octadiene pyrophosphate] was tested, and the “inhibition of transfer of [^3 H]AGPP to p21^H-ras, in words” value (FTase) was “found to inhibit” and the “conversion to organic soluble products” value (squalene synthase) was “showed no activity; also recorded: failed to detect any conversion”.
